The target of test [1] is Peptidyl-prolyl cis-trans isomerase A (Rattus norvegicus) (UniProt P10111). Briefly: In vitro affinity towards cyclophilin A was determined under competitive ELISA systems using protein-conjugated ligand CsA.
The next test is filed under the species Mus musculus. As to the kind of experiment: Immunosuppressive activity by mouse mixed lymphocyte reaction (MLR_M) relative to cyclosporin as 1. It counts as functional.
The nature of test [2]: Immunosuppressive activity with the help of a reporter gene assay for IL-2 (IL2-RGA) relative to cyclosporin as 1. It counts as functional. (In general: In a reporter assay the amount or activity of a reporter protein is the signal.)

The structures appear in SMILES notation.

Here are results for seven molecules from ChEMBL document CHEMBL1150037, “Calcineurin has a very tight-binding pocket for the side chain of residue 4 of cyclosporin” (1994).

Chain of Peptidyl-prolyl cis-trans isomerase A (Rattus norvegicus) (P10111 whole entry): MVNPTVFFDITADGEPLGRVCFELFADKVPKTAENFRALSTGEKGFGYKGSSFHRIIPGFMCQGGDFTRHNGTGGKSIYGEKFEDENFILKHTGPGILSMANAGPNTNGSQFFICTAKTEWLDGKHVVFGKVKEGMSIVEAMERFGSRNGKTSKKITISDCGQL

For the molecule `C/C=C/C[C@@H](C)[C@@H](O)[C@H]1C(=O)N[C@@H](CC)C(=O)N(C)CC(=O)N(C)[C@@H](CC)C(=O)N[C@@H](C(C)C)C(=O)N(C)[C@@H](CC(C)C)C(=O)N[C@@H](C)C(=O)N[C@H](C)C(=O)N(C)[C@@H](CC(C)C)C(=O)N(C)[C@@H](CC(C)C)C(=O)N(C)C(C(C)C)C(=O)N1C` (single isomer, unassigned), the Relative IC50 stood at 1.2 in test [1], 65 in the test filed under Mus musculus and 163 in test [2].

Consider `C/C=C/C[C@@H](C)[C@@H](O)[C@H]1C(=O)N[C@@H](CC)C(=O)N(C)CC(=O)N(C)[C@@H](CCC(C)C)C(=O)N[C@@H](C(C)C)C(=O)N(C)[C@@H](CC(C)C)C(=O)N[C@@H](C)C(=O)N[C@H](C)C(=O)N(C)[C@@H](CC(C)C)C(=O)N(C)[C@@H](CC(C)C)C(=O)N(C)C(C(C)C)C(=O)N1C` (single isomer, unassigned), for which the Relative IC50 came to 1.9 in test [1], 3.5 in the test filed under Mus musculus and 9 in test [2].

Turning to `C/C=C/C[C@@H](C)[C@@H](O)[C@H]1C(=O)N[C@@H](CC)C(=O)N(C)CC(=O)N(C)[C@@H](CC(C)(C)O)C(=O)N[C@@H](C(C)C)C(=O)N(C)[C@@H](CC(C)C)C(=O)N[C@@H](C)C(=O)N[C@H](C)C(=O)N(C)[C@@H](CC(C)C)C(=O)N(C)[C@@H](CC(C)C)C(=O)N(C)[C@@H](C(C)C)C(=O)N1C`, the Relative IC50 in test [1] was found to be 0.9; in the test listed under Mus musculus it was 130; in test [2] it was 110.

Turning to `C=C(C)C[C@H]1C(=O)N[C@@H](C(C)C)C(=O)N(C)[C@@H](CC(C)C)C(=O)N[C@@H](C)C(=O)N[C@H](C)C(=O)N(C)[C@@H](CC(C)C)C(=O)N(C)[C@@H](CC(C)C)C(=O)N(C)C(C(C)C)C(=O)N(C)[C@@H]([C@H](O)[C@H](C)C/C=C/C)C(=O)N[C@@H](CC)C(=O)N(C)CC(=O)N1C` (single isomer, unassigned), the results for the Relative IC50 (in test [1]; in the test listed under Mus musculus; in test [2]) were 1.8, 1.6 and 4, respectively.

Regarding `C/C=C/C[C@@H](C)[C@@H](O)[C@H]1C(=O)N[C@@H](CC)C(=O)N(C)CC(=O)N(C)[C@@H](CC2CC2)C(=O)N[C@@H](C(C)C)C(=O)N(C)[C@@H](CC(C)C)C(=O)N[C@@H](C)C(=O)N[C@H](C)C(=O)N(C)[C@@H](CC(C)C)C(=O)N(C)[C@@H](CC(C)C)C(=O)N(C)C(C(C)C)C(=O)N1C` (single isomer, unassigned), the Relative IC50 is 2.8 in test [1], 5 in the test filed under Mus musculus and 5.3 in test [2].

Take `C/C=C/C[C@@H](C)[C@@H](O)[C@H]1C(=O)N[C@@H](CC)C(=O)N(C)CC(=O)N(C)[C@@H](CC(C)(C)F)C(=O)N[C@@H](C(C)C)C(=O)N(C)[C@@H](CC(C)C)C(=O)N[C@@H](C)C(=O)N[C@H](C)C(=O)N(C)[C@@H](CC(C)C)C(=O)N(C)[C@@H](CC(C)C)C(=O)N(C)[C@@H](C(C)C)C(=O)N1C`: the Relative IC50 in test [1] stood at 2.1; in the test listed under Mus musculus, 25; in test [2] it was 7.

Regarding `C/C=C/C[C@@H](C)[C@@H](O)[C@H]1C(=O)N[C@@H](CC)C(=O)N(C)CC(=O)N(C)[C@@H](C(C)C)C(=O)N[C@@H](C(C)C)C(=O)N(C)[C@@H](CC(C)C)C(=O)N[C@@H](C)C(=O)N[C@H](C)C(=O)N(C)[C@@H](CC(C)C)C(=O)N(C)[C@@H](CC(C)C)C(=O)N(C)C(C(C)C)C(=O)N1C` (single isomer, unassigned), the figures for the Relative IC50 (in test [1]; in the test filed under Mus musculus; in test [2]) were 0.5, 130 and 2500, respectively.
